The record followed here is the METLIN SMRT retention time set (Domingo-Almenara et al. 2019).

The nature of this data set: gradient 5% acetonitrile 3 min, to 50% in 2 min, to 85% in 15 min, held 3 min, 100 µL/min. The conditions noted are these: column: Zorbax Extend-C18 2.1 x 50 mm; eluents: water / acetonitrile, 0.1% formic acid. In outline: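 Retention time was recorded from adduct peaks, which were picked computationally and each inspected manually. Pure standards ran in mixtures of ~100 molecules on HPLC coupled to a quadrupole time-of-flight mass spectrometer, in positive and negative ionization mode, through a Zorbax Extend-C18 column (2.1 × 50 mm, 1.8 μm) at 100 μL/min. Eluents were water and acetonitrile, each with 0.1% formic acid.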
The molecule `Cc1cccc(N(C)C(=O)Cn2c(=O)n(-c3ccc(F)cc3)c(=O)c3c2cc(C)n3C)c1` came in with an RP-LC retention time of 888 s.

The molecule `CCCCN(CC)C(=O)c1cc2c(=O)n3ccccc3nc2n1C` yielded an RP-LC retention time of 813 s.

Regarding `CN1C(=O)c2ccccc2Oc2ccc(C(=O)N3CCCCCC3)cc21`, the RP-LC retention time stood at 846 s.

With `O=c1c2ccccc2ncn1-c1ccc(Cl)cc1`, the RP-LC retention time was 870 s.

On to `Cc1ccc(-c2nnc(Cc3nc(-c4ccccc4)no3)o2)cc1F`, for which the RP-LC retention time was 1050 s.

With `Cc1ccc2c(=O)c(C(=O)N3CCCCC3)cn(CC(=O)NC3CCCCC3)c2n1`, the RP-LC retention time was found to be 731 s.

Turning to `CCc1nccn1Cc1nc(-c2cccc(Br)c2)no1`, the RP-LC retention time worked out at 685 s.

In the case of `Cc1cccc(CNC(=O)C2=C3CCCN3c3ccc(F)cc3S2(=O)=O)c1`, the RP-LC retention time stood at 936 s.

As to `COc1cccc(-c2ccc3nc(N4CCC(C(N)=O)CC4)sc3n2)c1`, the RP-LC retention time was found to be 745 s.

In the case of `COc1cccc(CN2CCC3(CC2)C(OC)CN3c2cccc(F)c2)n1` (centres undefined), the RP-LC retention time was 777 s.

For `CCc1noc(NC(C)=O)c1-c1ccc(C)c(S(=O)(=O)Nc2ccc(F)cc2Cl)c1`, the RP-LC retention time turned out to be 872 s.

In turn, `Cc1ccccc1S(=O)(=O)N(C)CC1CCOCC1` gave an RP-LC retention time of 837 s.

In turn, `Cc1ccccc1S(=O)(=O)N1CCC(n2cnnc2C(C)C)CC1` registered an RP-LC retention time of 738 s.

In the case of `CCn1nccc1-c1cccc(-c2noc(CNS(=O)(=O)c3ccc(Cl)cc3)n2)c1`, the RP-LC retention time stood at 986 s.

In the case of `CCOc1ccc(Cl)cc1S(=O)(=O)N1CCC(C(=O)NCc2ccc3c(c2)OCO3)CC1`, the RP-LC retention time stood at 922 s.

Molecule `O=C1CC2(CCN(S(=O)(=O)c3ccc([N+](=O)[O-])cc3)CC2)Oc2ccccc21` displayed an RP-LC retention time of 907 s.

`COc1ccc(NC(=O)C2CCN(S(=O)(=O)c3cc(-c4noc(C5CC5)n4)cs3)CC2)cc1` had an RP-LC retention time of 960 s.

Molecule `CCn1nc(CNC(=O)c2ccc(C#N)cc2)c2ccccc21` yielded an RP-LC retention time of 808 s.

Molecule `COc1ccc(NC(=O)Nc2cccc(-c3ccc(N4CCOCC4)nn3)c2)cc1OC` yielded an RP-LC retention time of 586 s.

With `CCOc1cc([C@@H](CS(C)(=O)=O)N2C(=O)c3cccc(NC(C)=O)c3C2=O)ccc1OC`, the RP-LC retention time was 859 s.

Molecule `COc1ccc(NC(=O)N2CCC(N3C[C@H]4C[C@H](C3)[C@H]3CCCC(=O)N3C4)CC2)cc1` yielded an RP-LC retention time of 573 s.

In turn, `CCOCCCNC(=O)C(CC)n1nc(C)c2nn(-c3ccccc3)c(C)c2c1=O` (centres undefined) yielded an RP-LC retention time of 823 s.

`COc1cccc(OCC(O)CN2CCN(Cc3ccccc3)CC2)c1` (centres undefined): the RP-LC retention time worked out at 610 s.

On to `O=C1c2cccc(OCC(=O)N3CCCc4ccccc43)c2CCN1Cc1cccnc1`, for which the RP-LC retention time is 594 s.

For the molecule `CC(C)NC(=O)Cn1ccn2nc(-c3ccc(F)cc3)c(CO)c2c1=O`, the RP-LC retention time is 682 s.

Molecule `Cc1cc(=O)n(CC(=O)Nc2ccc(C)c(C)c2)c(N2CCCC2)n1` yielded an RP-LC retention time of 668 s.

`Cc1ccc(-c2nc(NC3CCCCC3C)c3ccccc3n2)cc1` (centres undefined) gave an RP-LC retention time of 906 s.

Molecule `COc1ccc(CCNc2ncnc3c2cnn3-c2ccccc2)cc1OC` yielded an RP-LC retention time of 783 s.

For the molecule `O=C(Nc1cccc(Br)c1)N1CCC(n2cnnc2C2CC2)C1` (centres undefined), the RP-LC retention time was found to be 668 s.

Molecule `CCOc1ccccc1CNC(=O)C1CCN(C(=O)C2Sc3ccccc3NC2=O)CC1` (centres undefined) had an RP-LC retention time of 779 s.

`CC(C)NC(=O)C1CCCN(c2nc3ncn(CC(=O)NC4CCc5ccccc54)c(=O)c3s2)C1` (centres undefined): the RP-LC retention time stood at 709 s.

Take `CCc1ccc(S(=O)(=O)c2cnc3ccc(OC)cc3c2N2CCN(C)CC2)cc1`: the RP-LC retention time worked out at 653 s.

`COCCNC(=O)C1CCN(C(=O)c2cccn2-c2cccnc2)CC1` came in with an RP-LC retention time of 578 s.

`O=C(c1ccc(F)cc1)N1CCCC(c2nnc(-c3ccccc3)o2)C1` (centres undefined) displayed an RP-LC retention time of 819 s.

`O=C(NCCc1cccs1)C1CCCN(c2ncnc3c2oc2ccccc23)C1` (centres undefined) showed an RP-LC retention time of 764 s.

Turning to `COc1ccc(C2=NC3(CCN(C)CC3)NC(c3cccc(OC)c3O)C2)cc1` (centres undefined), the RP-LC retention time was determined as 583 s.

In the case of `Cc1ccc(CCNC(=O)CN2C(=O)CSc3cccn3-c3ccccc32)cc1`, the RP-LC retention time came out at 965 s.

On to `Cc1ccc(NS(=O)(=O)c2cc3n(c2)CCN(C(C)C)C3=O)c(F)c1`, for which the RP-LC retention time stood at 765 s.

The molecule `O=C(NCc1nnc(SCc2c(F)cccc2Cl)o1)c1cccc(C(F)(F)F)c1` yielded an RP-LC retention time of 933 s.

With `Cc1ccnc(N2CCC(C(=O)N3CCC(C(N)=O)(N4CCCCC4)CC3)CC2)n1`, the RP-LC retention time amounted to 547 s.

Molecule `Cc1ccc(-n2c(=O)c3sccc3n(Cc3nc(-c4ccc(Cl)c(F)c4)no3)c2=O)cc1` had an RP-LC retention time of 1150 s.

In turn, `CN(C1CCCCC1)S(=O)(=O)c1ccc(C(=O)Nc2nc3c(s2)Cc2ccccc2-3)cc1` had an RP-LC retention time of 1260 s.

With `COCCN1C(=O)c2ccccc2C(C(=O)NCc2ccccc2OC)C12CCCC2` (centres undefined), the RP-LC retention time came to 855 s.

In turn, `CCN1c2ccc(C)cc2C(=O)NC12CCN(C(=O)c1ccc(F)cc1)CC2` registered an RP-LC retention time of 828 s.

Consider `CCc1cccc(C)c1NC(=O)Cn1nc2c3cccc(C)c3ncn2c1=O`, for which the RP-LC retention time was determined as 615 s.

As to `Cc1cccc(-c2c3c(=O)n(C)c(=O)n(C)c3c3n2CCOC3c2ccco2)c1` (centres undefined), the RP-LC retention time was 934 s.

As for `O=C(C1CCC1)N1CCC(n2cnnc2C2CC2)CC1`, the RP-LC retention time was found to be 598 s.

`Cn1c(=O)c2cc(C(=O)Nc3ccccc3Cl)cnc2n(-c2ccccc2)c1=O` gave an RP-LC retention time of 882 s.

Turning to `CC1CN=C2C=C(N3CCN(C(=O)NCCc4ccccc4)CC3)N=CN21` (centres undefined), the RP-LC retention time was determined as 620 s.

For `CCCn1c(C)cnc1C1CN(S(=O)(=O)c2cccc3cccnc23)C1`, the RP-LC retention time was determined as 624 s.

On to `COc1ccc(Cl)c2c(=O)c3c([nH]c12)CCN(CC(=O)Nc1ccc(C)c(Cl)c1)C3`, for which the RP-LC retention time came to 762 s.

As to `COc1cc(NC(=O)CSc2cc(N3CCN(c4ccccc4OC)CC3)ncn2)cc(OC)c1`, the RP-LC retention time is 957 s.

`CCCN1C(=O)COc2ccc(-c3noc(-c4cccc(C)c4)n3)cc21` yielded an RP-LC retention time of 1320 s.

`COCCNC(=O)c1nc(-c2ccnc(N3CCCC3)c2)no1`: the RP-LC retention time was found to be 585 s.

In the case of `COc1cn(CC(=O)NCc2ccccc2Cl)c(CO)cc1=O`, the RP-LC retention time came to 564 s.

Take `O=C(CCNc1cnc2cnccn12)NCc1ccc(N2CCCCC2)cc1`: the RP-LC retention time amounted to 533 s.

As for `CCOc1ccc(N2CCn3c2nn(Cc2ccc(C(=O)OC)o2)c(=O)c3=O)cc1`, the RP-LC retention time is 731 s.

`CCc1cccc(NC(=O)C2CCN(S(=O)(=O)c3cn(C(C)C)cn3)CC2)c1` displayed an RP-LC retention time of 840 s.

Molecule `CC(C)CCCC(C)N` (centres undefined) gave an RP-LC retention time of 641 s.

For `CCS(=O)(=O)N1CCc2ccc(NC(=O)c3cccs3)cc2C1`, the RP-LC retention time stood at 747 s.

Consider `CCN1C(=O)COc2ccc(-c3noc(COc4ccc(OC)cc4)n3)cc21`, for which the RP-LC retention time turned out to be 1000 s.

In the case of `CC(C)NC[C@@H](C(=O)N1CCN(c2ncnc3c2[C@H](C)C[C@H]3O)CC1)c1ccc(Cl)cc1`, the RP-LC retention time is 610 s.

`O=C(NCCc1csc(-c2cccc(F)c2)n1)c1ccc([N+](=O)[O-])cc1Cl` returned an RP-LC retention time of 917 s.

`COC1=CC(=O)OC(/C=C/c2ccccc2)C1` (centres undefined) came in with an RP-LC retention time of 883 s.

For the molecule `Cc1nc2c(sc3nc(-c4ccccc4)ccc32)c(=O)n1CC(=O)NCc1ccccc1Cl`, the RP-LC retention time is 1030 s.

The molecule `Cc1sc(-c2cc(C(F)(F)F)on2)cc1S(=O)(=O)Nc1ccc(Br)cc1F` showed an RP-LC retention time of 1230 s.

`COc1ccc(OC)c(S(=O)(=O)Nc2ccc(-c3cn4ccc(C)nc4n3)cc2)c1` had an RP-LC retention time of 642 s.

With `CCn1c(=O)cc(OCC(=O)N2CCN(c3ccccn3)CC2)c2ccccc21`, the RP-LC retention time came out at 584 s.

Molecule `CCN1CCC(N(Cc2ccc3c(c2)OCO3)C(=O)Nc2ccc(OC)cc2OC)CC1` came in with an RP-LC retention time of 659 s.

Turning to `O=C(Cn1nc2c(N3CCN(c4ccccc4)CC3)nccn2c1=O)Nc1cccc(Cl)c1`, the RP-LC retention time turned out to be 964 s.

Regarding `CSc1ccc(-c2noc(Cc3nnc(-c4ccc(Cl)cc4)o3)n2)cc1`, the RP-LC retention time was 1120 s.

Turning to `Cc1nn(-c2ccc(Nc3ccc(NC(=O)c4ccccc4F)cc3)nn2)c(C)c1C`, the RP-LC retention time was found to be 802 s.

`c1ccc(OCc2nc(-c3cccc(-c4ccn[nH]4)c3)no2)cc1` yielded an RP-LC retention time of 906 s.

In turn, `COc1ccc(C2Cn3nnc(-c4nc(-c5ccncc5)no4)c3CO2)cc1` (centres undefined) had an RP-LC retention time of 873 s.

Regarding `CC(C)c1nncn1C1CCN(S(=O)(=O)c2ccccc2Cl)CC1`, the RP-LC retention time came out at 716 s.

Regarding `CCOC(=O)c1noc2ncnc(NCc3ccccc3Cl)c12`, the RP-LC retention time amounted to 965 s.

`O=C(NCCCN1CCCC1=O)C1CCCN(c2ncnc3c2nc2n3CCCCC2)C1` (centres undefined): the RP-LC retention time was found to be 605 s.

As to `CN(C)c1ncncc1N1CCC(C(=O)NCCC2=CCCCC2)CC1`, the RP-LC retention time amounted to 679 s.

Turning to `O=C(Cn1cnc2c(sc3nc(-c4ccccc4)ccc32)c1=O)NC1CCCC1`, the RP-LC retention time was determined as 906 s.
